Source: patent publication US20130230459A1, “RADIOLABELLED mGluR2 PET LIGANDS” (Janssen Pharmaceuticals, Inc., priority 2010, published 2013)

Tests used:
[1] = system: hmGluR1, hmGluR3, hmGluR4, hmGluR5, rmGluR6, hmGluR7 and hmGluR8; test: Selectivity for hmGluR2 in functional receptor assays (Ca2+ mobilization or [35S]GTPγS); type: cell-based, human; rat (mGluR6); settings: hmGluR2 versus other mGluRs
Method: (§1) Selectivity of the compounds for hmGluR2 versus hmGluR1, hmGluR3, hmGluR4, hmGluR5, rmGluR6, hmGluR7 and hmGluR8 was determined using functional receptor assays (either measuring changes in intracellular Ca2+ mobilization or G protein activation via [^35S]GTPγS) with cells overexpressing the receptor of interest.

human mGluR2 receptor = biological target: T1, human mGluR2 receptor (Homo sapiens, UniProt Q14416); test: [35S]GTPγS binding assay, mGluR2 positive allosteric modulation (PAM); type: biochemical; settings: in presence of ~EC20 glutamate, membranes of CHO cells with human mGluR2; for EC50: read-out: GTPγS-hmGluR2 PAM pEC50 (converted)
T1 construct: expressed in transfected cells; host or cells: CHO cells (membranes)
Method: The [^35S]GTPγS binding assay is a functional membrane-based assay used to study G-protein coupled receptor (GPCR) function whereby incorporation of a non-hydrolysable form of GTP, [^35S]GTPγS (guanosine 5′-triphosphate, labelled with […] ^35S), is measured.
CHO-cells were cultured to pre-confluence and stimulated with 5 mM butyrate for 24 h. Cells were then collected by scraping in PBS and cell suspension was centrifuged (10 min at 4000 RPM in benchtop centrifuge). Supernatant was discarded and pellet gently resuspended in 50 mM Tris-HCl, pH 7.4 by mixing with a vortex and pipetting up and down. The suspension was centrifuged at 16,000 RPM (Sorvall RC-5C plus rotor SS-34) for 10 minutes and the supernatant discarded. The pellet was homogenized in 5 mM Tris-HCl, pH 7.4 using an ultra-turrax homogenizer and centrifuged again (18,000 RPM, 20 min, 4° C.). The final pellet was resuspended in 50 mM Tris-HCl, pH 7.4 and stored at −80° C. in appropriate aliquots before use. Protein concentration was determined by the Bradford method (Bio-Rad, USA) with bovine serum albumin as standard.
Measurement of mGluR2 positive allosteric modulatory activity of test compounds was performed as follows. Test compounds and glutamate were diluted in assay buffer containing 10 mM HEPES acid, 10 mM HEPES salt, pH 7.4, 100 mM NaCl, 3 mM MgCl2 and 10 μM GDP. Human mGlu2 receptor-containing membranes were thawed on ice and diluted in assay buffer supplemented with 14 μg/ml saponin. Membranes were pre-incubated with compound alone or together with a predefined (˜EC20) concentration of glutamate (PAM assay) for 30 min at 30° C. After addition of [^35S]GTPγS (f.c. 0.1 nM), assay mixtures were shaken briefly and further incubated to allow [^35S]GTPγS incorporation on activation (30 minutes, 30° C.). Final assay mixtures contained 7 μg of membrane protein in 10 mM HEPES acid, 10 mM HEPES salt, pH 7.4, 100 mM NaCl, 3 mM MgCl2,10 μM GDP and 10 μg/ml saponin. Total reaction volume was 200 μl. Reactions were terminated by rapid filtration through Unifilter-96 GF/B plates (Perkin Elmer, Mass., USA) using a 96-well filtermate universal harvester. Filters were washed 6 times with ice-cold 10 mM NaH2PO4/10 mM Na2HPO4, pH 7.4. Filters were then air-dried, and 40 μl of liquid scintillation cocktail (Microscint-O) was added to each well. Membrane-bound radioactivity was counted in a Microplate Scintillation and Luminescence Counter from Perkin Elmer.
The concentration-response curves of representative compounds of the present invention—obtained in the presence of EC20 of mGluR2 agonist glutamate to determine positive allosteric modulation (PAM)—were generated using the Lexis software interface (developed at J&J). Data were calculated as % of the control glutamate response, defined as the maximal response that is generated upon addition of glutamate alone. Sigmoid concentration-response curves plotting these percentages versus the log concentration of the test compound were analyzed using non-linear regression analysis. The concentration producing half-maximal effect is then calculated as EC50.
The pEC50 values below were calculated as the −log EC50, when the EC50 is expressed in M.

hmGluR3 = biological target: T2, hmGluR3 (Homo sapiens, UniProt Q14832); test: Selectivity functional receptor assay, mGluR3; type: cell-based; settings: hmGluR2 versus mGluR3
T2 construct: expressed in transfected cells
Method: as §1

hmGluR8 = biological target: T3, hmGluR8 (Homo sapiens, UniProt O00222); test: Selectivity functional receptor assay, mGluR8; type: cell-based; settings: hmGluR2 versus mGluR8
T3 construct: expressed in transfected cells
Method: as §1

mGluR2 = biological target: T4, mGluR2 (Rattus norvegicus, UniProt P31421); test: MicroPET imaging: baseline, blocking and chase experiments; type: in vivo, Wistar rats; settings: chase 0.3 mg/kg i.v. ~30 min after [^11C]B-2
T4 construct: from tissue; host or cells: brain of living male Wistar rats (in vivo microPET)
Method: Imaging experiments were performed on a Focus™ 220 microPET scanner (Concorde Microsystems, Knoxyille, Tenn., USA) using healthy male Wistar rats. During all scan sessions, animals were kept under gas anesthesia (2.5% isoflurane in O2 at 1 L/min flow rate).
Dynamic scans of 90 min were acquired. After reconstruction of the images (filtered back projection), they were spatially normalized to an in-house created [^11C]raclopride template of the rat brain in Paxinos coordinates. Automated and symmetric volumes of interest (VOIs) were generated for different brain regions (striatum, cortex, cerebellum, hippocampus, hypothalamus, thalamus, substantia nigra, nucleus accumbens and lateral globus pallidus) from which time-activity curves (TAC) were constructed for each individual scan, using PMOD software (v 3.1, PMOD Technologies Ltd.). The radioactivity concentration in the different brain regions was expressed as SUV as a function of time p.i. of the radiotracer by normalization for body weight of the animal and injected dose.
Rats were injected with 30-60 MBq of high specific activity formulation of [^11C]B-4, [^11C]B-2, [^11C]B-7, or [^11C]B-10 via the tail vein under isoflurane anesthesia (2.5% in O2 at 1 L/min flow rate).
For pretreatment and displacement experiments, compound A, compound B or ritanserin were dissolved and administered in a vehicle containing 20% (2-hydroxypropyl)-β-cyclodextrine and two equivalents hydrochloric acid. The ritanserin solution was protected from light.
A self-blocking study was done by subcutaneous (s.c.) administration of the authentic reference material (for [^11C]B-4) at ˜30 min prior to the radiotracer injection. Displacement studies were performed by i.v. injection of compound B at dose 4, 1, 0.3 and 0.1 mg/kg, compound A at dose 1 mg/kg or ritanserin at dose 0.3 mg/kg. All chase compounds were injected ˜30 min after radiotracer injection. A wash-out period of at least four days was maintained between the different pretreatment and displacement studies.
[^11C]B-4 was evaluated in vivo in three rats which were scanned dynamically for 90 min using μPET. The first rat was used for a baseline scan. The second rat was pretreated with authentic reference material B-4 via s.c. administration (dose 10 mg/kg) at 30 min prior to tracer injection. The third rat was used in a chase experiment and was injected i.v. with authentic reference material B-4 (dose 3 mg/kg) 30 min after tracer injection.
Two rats were injected with high specific activity tracer ([^11C]B-4, [^11C]B-2, [^11C]B-7, or [^11C]B-10) and scanned dynamically for 90 min. The first rat was scanned baseline, the second rat was injected i.v. with compound B (dose 4 mg/kg) 30 min after tracer injection. Table 16 gives an overview of the maximum and minimum SUV values in the chase experiment for the four studied tracers.
A chase experiment was performed for [^11C]B-2 with different doses of compound B (4, 1, 0.3, 0.1 mg/kg). The chase compound was injected i.v. 30 min after tracer injection. Table 17 gives an overview of the average SUV values before and after injection of the chase for the total brain.

hmGluR7 = biological target: T5, hmGluR7 (Homo sapiens, UniProt Q14831); test: Selectivity functional receptor assay, mGluR7; type: cell-based; settings: hmGluR2 versus mGluR7
T5 construct: expressed in transfected cells
Method: as §1

T2 sequence (Q14832 23-879): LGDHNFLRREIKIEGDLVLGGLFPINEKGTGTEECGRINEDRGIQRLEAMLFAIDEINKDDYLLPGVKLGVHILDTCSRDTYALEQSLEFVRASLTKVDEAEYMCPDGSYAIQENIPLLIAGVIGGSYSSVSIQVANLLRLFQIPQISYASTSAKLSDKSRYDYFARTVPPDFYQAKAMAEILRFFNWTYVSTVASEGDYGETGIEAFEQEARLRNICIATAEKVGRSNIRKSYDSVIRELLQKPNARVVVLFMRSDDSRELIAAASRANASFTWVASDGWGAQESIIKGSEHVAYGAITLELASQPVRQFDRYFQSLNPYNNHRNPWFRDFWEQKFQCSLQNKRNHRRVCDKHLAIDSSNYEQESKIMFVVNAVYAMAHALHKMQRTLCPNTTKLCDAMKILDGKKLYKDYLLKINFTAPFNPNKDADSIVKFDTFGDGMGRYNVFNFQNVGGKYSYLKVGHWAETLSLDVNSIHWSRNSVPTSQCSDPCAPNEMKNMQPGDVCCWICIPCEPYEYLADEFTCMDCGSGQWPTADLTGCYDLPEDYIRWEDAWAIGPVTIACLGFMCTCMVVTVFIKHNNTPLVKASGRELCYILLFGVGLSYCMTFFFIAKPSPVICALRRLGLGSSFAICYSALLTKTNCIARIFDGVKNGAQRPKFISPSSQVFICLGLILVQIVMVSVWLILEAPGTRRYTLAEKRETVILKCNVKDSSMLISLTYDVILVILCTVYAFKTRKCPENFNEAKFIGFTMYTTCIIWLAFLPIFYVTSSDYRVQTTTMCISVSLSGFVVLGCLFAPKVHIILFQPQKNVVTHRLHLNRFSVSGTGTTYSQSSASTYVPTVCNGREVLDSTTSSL
T3 sequence (O00222 34-908): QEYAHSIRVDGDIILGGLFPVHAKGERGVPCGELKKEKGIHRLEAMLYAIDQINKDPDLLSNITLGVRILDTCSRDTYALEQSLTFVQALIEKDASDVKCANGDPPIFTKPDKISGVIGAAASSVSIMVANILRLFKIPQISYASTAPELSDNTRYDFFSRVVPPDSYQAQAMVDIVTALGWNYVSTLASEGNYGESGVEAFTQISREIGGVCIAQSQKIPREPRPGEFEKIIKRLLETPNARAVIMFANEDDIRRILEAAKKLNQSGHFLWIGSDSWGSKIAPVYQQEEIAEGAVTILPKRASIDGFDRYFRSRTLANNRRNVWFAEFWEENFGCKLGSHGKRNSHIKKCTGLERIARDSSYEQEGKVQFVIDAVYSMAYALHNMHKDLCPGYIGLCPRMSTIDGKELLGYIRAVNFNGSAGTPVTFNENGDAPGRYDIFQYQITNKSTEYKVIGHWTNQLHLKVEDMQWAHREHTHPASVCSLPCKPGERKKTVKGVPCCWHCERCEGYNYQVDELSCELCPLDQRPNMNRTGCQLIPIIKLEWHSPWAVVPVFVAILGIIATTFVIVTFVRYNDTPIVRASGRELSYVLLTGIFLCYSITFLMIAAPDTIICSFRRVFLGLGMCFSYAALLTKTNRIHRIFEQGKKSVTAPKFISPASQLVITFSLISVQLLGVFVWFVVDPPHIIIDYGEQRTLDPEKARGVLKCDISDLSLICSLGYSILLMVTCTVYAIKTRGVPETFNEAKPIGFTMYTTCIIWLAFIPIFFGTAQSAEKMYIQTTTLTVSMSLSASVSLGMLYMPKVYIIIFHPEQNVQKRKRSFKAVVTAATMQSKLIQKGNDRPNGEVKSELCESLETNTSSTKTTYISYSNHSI
T1 sequence (Q14416 19-872): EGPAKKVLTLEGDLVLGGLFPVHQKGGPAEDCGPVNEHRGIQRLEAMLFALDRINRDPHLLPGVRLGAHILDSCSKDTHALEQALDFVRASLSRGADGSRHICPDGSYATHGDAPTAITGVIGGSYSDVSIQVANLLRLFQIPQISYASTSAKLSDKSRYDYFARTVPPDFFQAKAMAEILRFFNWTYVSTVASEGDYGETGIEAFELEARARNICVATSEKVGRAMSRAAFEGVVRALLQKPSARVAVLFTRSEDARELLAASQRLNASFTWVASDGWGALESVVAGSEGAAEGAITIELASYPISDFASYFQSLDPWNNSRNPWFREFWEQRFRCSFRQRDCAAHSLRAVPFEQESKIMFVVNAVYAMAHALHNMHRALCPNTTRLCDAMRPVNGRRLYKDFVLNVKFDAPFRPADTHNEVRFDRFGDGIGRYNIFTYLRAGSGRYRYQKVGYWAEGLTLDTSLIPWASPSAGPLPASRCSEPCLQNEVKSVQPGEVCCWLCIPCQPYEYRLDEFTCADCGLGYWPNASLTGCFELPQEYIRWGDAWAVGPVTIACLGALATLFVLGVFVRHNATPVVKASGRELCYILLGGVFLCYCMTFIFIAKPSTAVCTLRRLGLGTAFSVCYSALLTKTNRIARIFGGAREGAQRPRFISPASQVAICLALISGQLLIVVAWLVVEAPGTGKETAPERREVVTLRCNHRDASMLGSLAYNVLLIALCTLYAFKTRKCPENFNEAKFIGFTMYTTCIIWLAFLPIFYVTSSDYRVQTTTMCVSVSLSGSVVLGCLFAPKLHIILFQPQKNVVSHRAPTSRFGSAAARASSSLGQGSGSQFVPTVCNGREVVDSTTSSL
T5 sequence (Q14831 35-915): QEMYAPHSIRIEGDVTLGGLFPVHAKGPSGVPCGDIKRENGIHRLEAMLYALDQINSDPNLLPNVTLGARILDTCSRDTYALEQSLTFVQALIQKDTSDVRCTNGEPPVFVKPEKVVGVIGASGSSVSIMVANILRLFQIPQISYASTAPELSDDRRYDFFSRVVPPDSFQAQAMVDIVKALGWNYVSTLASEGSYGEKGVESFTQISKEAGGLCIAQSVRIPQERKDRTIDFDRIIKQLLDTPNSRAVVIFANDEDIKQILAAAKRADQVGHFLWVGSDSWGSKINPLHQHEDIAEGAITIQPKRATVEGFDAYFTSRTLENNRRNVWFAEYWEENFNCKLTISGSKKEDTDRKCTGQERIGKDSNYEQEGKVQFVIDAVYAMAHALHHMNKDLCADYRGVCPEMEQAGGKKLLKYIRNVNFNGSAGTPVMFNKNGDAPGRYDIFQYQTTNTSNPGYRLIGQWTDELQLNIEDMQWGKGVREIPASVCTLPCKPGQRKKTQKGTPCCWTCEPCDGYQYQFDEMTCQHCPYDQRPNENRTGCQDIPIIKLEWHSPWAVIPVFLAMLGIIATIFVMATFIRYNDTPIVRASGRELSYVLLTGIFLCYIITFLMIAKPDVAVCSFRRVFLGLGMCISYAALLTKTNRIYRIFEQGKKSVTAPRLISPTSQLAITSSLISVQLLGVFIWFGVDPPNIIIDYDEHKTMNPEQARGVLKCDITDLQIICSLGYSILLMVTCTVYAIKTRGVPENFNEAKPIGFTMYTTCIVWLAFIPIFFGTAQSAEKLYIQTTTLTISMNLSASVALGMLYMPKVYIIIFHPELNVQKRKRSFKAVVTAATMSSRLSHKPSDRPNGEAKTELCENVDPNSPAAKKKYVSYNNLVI
T4 sequence (P31421 19-872): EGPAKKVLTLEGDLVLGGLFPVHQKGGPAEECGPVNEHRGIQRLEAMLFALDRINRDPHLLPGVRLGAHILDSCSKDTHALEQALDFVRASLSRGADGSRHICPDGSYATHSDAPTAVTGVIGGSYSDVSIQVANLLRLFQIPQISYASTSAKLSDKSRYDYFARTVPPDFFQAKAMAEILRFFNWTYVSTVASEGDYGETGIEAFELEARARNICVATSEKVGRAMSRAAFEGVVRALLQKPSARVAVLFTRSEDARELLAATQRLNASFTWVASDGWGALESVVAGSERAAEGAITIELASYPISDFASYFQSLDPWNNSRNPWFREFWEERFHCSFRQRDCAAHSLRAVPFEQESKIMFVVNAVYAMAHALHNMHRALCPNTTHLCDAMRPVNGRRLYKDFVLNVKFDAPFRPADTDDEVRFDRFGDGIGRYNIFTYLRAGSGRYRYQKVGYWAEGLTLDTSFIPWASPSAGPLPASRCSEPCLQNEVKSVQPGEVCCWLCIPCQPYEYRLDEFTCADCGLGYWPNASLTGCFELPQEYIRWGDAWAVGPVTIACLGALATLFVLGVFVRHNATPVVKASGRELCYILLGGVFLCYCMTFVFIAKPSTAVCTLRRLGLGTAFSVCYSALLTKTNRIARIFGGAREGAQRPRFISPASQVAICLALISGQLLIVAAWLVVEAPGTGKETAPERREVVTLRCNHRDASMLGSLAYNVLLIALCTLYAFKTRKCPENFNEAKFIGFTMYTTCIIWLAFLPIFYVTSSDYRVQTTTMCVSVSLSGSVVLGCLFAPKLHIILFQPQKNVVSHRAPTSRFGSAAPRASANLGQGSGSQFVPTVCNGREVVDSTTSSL

Row | SMILES | Selectivity over mGluR1, mGluR3-mGluR8 [1] | GTPγS-hmGluR2 PAM pEC50 (human mGluR2 receptor) | melting point | EC50 (human mGluR2 receptor) | Selectivity over mGluR3 (hmGluR3) | Selectivity over mGluR8 (hmGluR8) | effect of the chase compound on the binding of [^11C]B-2 (mGluR2) | Selectivity over mGluR7 (hmGluR7)
1 | COc1c(F)cccc1C1CCN(c2ccn3c(CC4CC4)nnc3c2Cl)CC1 [compound 9] | >500 fold | 7.43 | 168.3 °C | – | – | – | – | –
2 | COc1cccc(F)c1C1CCN(c2ccn3c(CC(F)(F)F)nnc3c2Cl)CC1 [compound 5] | ≧1,000 fold | – | – | 3.89 nM | – | – | – | –
3 | COc1c(C2CCN(c3ccn4c(CC5CC5)nnc4c3Cl)CC2)ccc(F)c1F [compound 8] | > 1,000 fold | – | 173.5 °C | 26.3 nM | ≥ 400 fold | – | – | –
4 | COc1ccc(F)c(F)c1C1CCN(c2ccn3c(CC4CC4)nnc3c2Cl)CC1 [compound 10] | >1,000 fold, except for mGluR3 and mGluR8 for | 8.03 | 208.5 °C | – | which selectivity ≧500 fold | which selectivity ≧500 fold | – | –
5 | COc1c(F)ccc(F)c1C1CCN(c2ccn3c(CC4CC4)nnc3c2Cl)CC1 [compound 2] | >1,000 fold | – | 163.2 °C | 7.41 nM | – | – | – | –
6 | COc1ccc(F)cc1C1CCN(c2ccn3c(CC4CC4)nnc3c2Cl)CC1 [compound 4] | > 500 fold | – | > 300 °C | 9.33 nM | ≥ 40 fold | – | – | –
7 | Cc1nc2sccn2c(=O)c1CCN1CCC(=C(c2ccc(F)cc2)c2ccc(F)cc2)CC1 [Ritanserin, ritanserin, reference compound] | – | – | – | – | – | – | no significant effect | –
8 | COc1cc(F)cc(F)c1C1CCN(c2ccn3c(CC4CC4)nnc3c2Cl)CC1 [compound 7] | >1,000 fold, except for mGluR3 and mGluR8 | 8.16 | 162.2 °C | – | ≧500 fold | ≧500 fold | – | –
9 | COc1c(F)ccc(F)c1C1CCN(c2ccn3c(CC4CC4)nnc3c2C(F)(F)F)CC1 [compound 3] | >1,000 fold | 8.39 | 180.7 °C | – | – | – | – | –
10 | COc1cccc(F)c1C1CCN(c2ccn3c(CC4CC4)nnc3c2Cl)CC1 [compound 6] | > 1,000 fold | 8.22 | – | – | > 300 fold | mGluR7 and mGluR8 for which selectivity >500 fold | – | mGluR7 and mGluR8 for which selectivity >500 fold
11 | COc1ccccc1C1CCN(c2ccn3c(CC4CC4)nnc3c2Cl)CC1 [compound 11] | >100, except for mGluR3 for which selectivity fold | 7.7 | – | – | ~20 fold | – | – | –
12 | COc1ccc(F)cc1C1CCN(c2ccn3c(CC(F)(F)F)nnc3c2Cl)CC1 [compound 1] | >1,000 fold | 7.98 | 259 °C | – | – | – | – | –
13 | COc1c(F)cccc1C1CCN(c2ccn3c(CC4CC4)nnc3c2C(F)(F)F)CC1 [compound 12] | ≥ 1,000 fold | – | 195.7 °C | 11.2 nM | ≥ 200 fold | – | – | –
